Measured values as given in patent US11964014B2, “Vaccine adjuvants based on TLR receptor ligands” (priority 2019, dated 2024).

Columns and labels:
[1] = test system: monovalent (A/Victoria, H3N2) split flu antigen; type: in vivo, Balb/c mice; details: i.m.
[2] = test system: primary human peripheral blood mononuclear cells (PBMCs); test: Cytokine (IFNα, IL-12p70, TNFα) induction in human PBMCs stimulated with TLR agonists; type: cell-based; details: human PBMC
Method: IFNα and IL-12p70 responses were measured in primary human peripheral blood mononuclear cells (PBMCs) after exposure to various concentrations of oxoadenine compounds.
Liposomes were prepared using the thin film method: phospholipids (DOPC and cholesterol at 40 and 10 mg/mL respectively) and agonist(s) (TLR7/8 agonist fixed at 2 mg/mL) were dissolved in chloroform at the desired concentration in a round bottom flask. The solvent was removed under vacuum by rotary evaporation at 45° C., and the resulting dried film was placed in a vacuum chamber overnight to remove any residual solvent. Rehydration buffer was added to the dried film and the suspension was sonicated to resuspend the phospholipids and form the unilamellar vesicles. Sonication continued until the particle size was<200 nm, at which time the formulations were sterile filtered through a 0.22 μm PVDF filter. Concentrations of agonist(s) in the formulations was determined by RP-HPLC using a five-point standard curve. Human whole blood was collected from normal healthy donors at the University of Montana (Missoula, MT) using an Institutional Review Board approved protocol. […] Culture supernatants were analyzed for IL-12p70 and IFNα levels using human IL-12p70 DuoSet (R) ELISA kit (R&D Systems, Minneapolis, MN) and human IFNα VeriKine ELISA kit (Pestka Biomedical Laboratories, Inc., Piscataway, NJ).

[3] = test system: CT26 cells (murine colon cancer cell line); test: CT26 syngeneic tumor model, tumor growth; type: in vivo; details: CT26 s.c. in female Balb/c mice; 10 μg or 50 μg IV once a week for two weeks, 2% glycerol in sterile water (FIG. 6A, 6B)
Method: Young, female Balb/c mice (approximately 8 weeks old) were implanted with 1×10^6 CT26 cells (murine colon cancer cell line, syngeneic in Balb/c mice) subcutaneously in the right flank. When tumors reached an average size of 75 mm^3 (11 days after CT26 cells were implanted), mice were randomized into treatment groups. Beginning on day 12, 10 μg or 50 μg of UM-1007 in an aqueous formulation (2% glycerol in sterile water) was injected IV once a week for two weeks.

CCCCCCCCCCCCCCCC(=O)OC[C@H](COCCOCCOCCOP(=O)(O)OCCN1CCC(Cn2c(O)nc3c(N)nc(O[C@@H](C)CCC)nc32)CC1)OC(=O)CCCCCCCCCCCCCCC [UM-1007]
Anti-influenza IgG titers over antigen-only vaccinated animals ([1]; Balb/c mice, liposomes, 10 μg UM-1007 alone): 17 fold | Dose dependence of anti-influenza IgG titer enhancement ([1]; Balb/c mice, liposomes, 14dp2 (FIG. 3B)): enhanced titers in a dose-dependent manner | Anti-influenza IgG titers over the antigen-alone group ([1]; Balb/c mice, liposomes, co-encapsulated with CRX-601 (TLR7/8:TLR4 ratio 10:1)): > 25 fold | Anti-influenza IgG titers after a single vaccination ([1]; naïve Balb/c mice, liposomes alone or co-encapsulated with CRX-601, 14dp1 (FIG. 3A)): Strong anti-influenza IgG titers | IFNα induction potency compared with the non-PEGylated oxoadenine Compound B ([2]; 24 h, liposomes, alone or in combination with TLR4 agonist CRX-601 (FIG. 2A)): more potent IFNα inducer | IL-12p70 induction potency relative to Compound B ([2]; combined with TLR4 agonist CRX-601 (FIG. 2B)): 125 fold | Tumor growth compared to treatment naive controls [3]: slower tumor growth
